Data as given in patent publication US11786608B2, “Isoquinolinyl triazolone complexes” (Takeda Pharmaceutical Company Limited, priority 2016, dated 2023).

Target: human BTK (Homo sapiens (Human), UniProt Q06187)
Experiment: BTK inhibition assay (phosphorylation of 5-FAM-labeled substrate, Caliper LC-3000)
Type: biochemical
Settings: residues 382 to 659 of human BTK; 60 minutes at room temperature
Excerpt: The activity of compound of Formula 1, stereoisomer thereof, or tautomers of the compound as Formula 1 or stereoisomer thereof, as BTK inhibitors may be determined by a variety of methods, including in vitro and in vivo methods. The following in vitro assay measures a test compound's ability to inhibit BTK-mediated phosphorylation of a FAM-labeled substrate, 5-FAM-[…]-NH2.
Purified BTK may be obtained as follows (Clone SBVC-1603_9P is used). A cDNA sequence encoding residues 382 to 659 of human BTK is cloned into the vector pSXB4. This construct engineers an in-frame translational fusion with the Glutathione-S-Transferase (GST) protein for use in affinity purification. The fusion protein derived from this construct contains a protease recognition sequence to liberate the BTK from the GST affinity tag. High-titer baculoviral stocks, generated using the Bac-to-Bac® system (Invitrogen), are used to express the recombinant protein in Spodoptera frugiperda Sf9 cells in 10 L Wave bags. Recombinant proteins are isolated from cellular extracts by passage over Glutathione Sepharose 4B (GE Healthcare) and the BTK moiety is released from the GST affinity tag by treatment with PreScission protease. […] The purity of the fractions is assessed by SDS PAGE and the peak protein fractions are pooled and concentrated using Amicon Ultra-15 Centrifugal Filter Devices (Millipore).

human BTK, sequence (Q06187 382-659): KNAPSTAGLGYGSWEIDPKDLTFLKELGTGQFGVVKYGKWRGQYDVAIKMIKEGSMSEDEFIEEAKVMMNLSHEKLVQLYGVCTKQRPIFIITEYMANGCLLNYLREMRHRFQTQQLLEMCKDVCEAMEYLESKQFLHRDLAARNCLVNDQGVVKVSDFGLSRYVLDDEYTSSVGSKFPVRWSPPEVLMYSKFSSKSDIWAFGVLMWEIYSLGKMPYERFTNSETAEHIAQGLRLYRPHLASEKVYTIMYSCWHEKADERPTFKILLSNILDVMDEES

BTK Inhibition (pIC50): >8.7
SMILES: C=CC(=O)N1CC[C@H](Oc2nc(-c3n[nH]c(=O)[nH]3)cc3ccccc23)C1 [Example 1, (S)-3-(1-((1-acryloylpyrrolidin-3-yl)oxy)isoquinolin-3-yl)-1H-1,2,4-triazol-5(4H)-one]
